{
  "source": "patent US20200361779A1",
  "about": "“COMPOSITION INCLUDING I2SCN- IONS AND/OR I(SCN)2- IONS” (priority 2015, published 2020)",
  "experiment": "Degradation of the ions in the concomitant presence of LP (NMR signal at 49 ppm)",
  "format": "physicochemical",
  "conditions": "for signal at 49 ppm / wanted ions in concomitant presence of LP: after 48 h",
  "method": "During the production of the wanted ions, if one keeps the enzyme in the mixture, one observes a gradual loss of the wanted ions, and, after 48 h, a total loss of the wanted ions due to enzymatic oxidation of the wanted ions, as illustrated in FIG. 19 in which one observes a decrease in the intensity of the signal as a function of the time of presence of the enzyme in the matrix (solution).",
  "note": "“Also recorded” adds a separate entry of the source.",
  "data": [
    {"substance": "I2SCN^− and/or I(SCN)2^− ions", "values": [
      {"measurement": "signal at 49 ppm in concomitant presence of LP", "setting": "3 h of incubation", "value": "pronounced decrease of the signal"},
      {"measurement": "signal at 49 ppm in concomitant presence of LP", "setting": "after 1 h", "value": "slight decrease"},
      {"measurement": "signal at 49 ppm / wanted ions in concomitant presence of LP", "value": "total disappearance of the signal; also recorded: complete disappearance"},
      {"measurement": "signal at 49 ppm / wanted ions in concomitant presence of LP", "setting": "listed as wanted ions", "value": "total loss"}
    ]}
  ]
}
